Results as given in patent US11174252B2, “Heterocyclic compounds as kinase inhibitors” (priority 2018, dated 2021).
Read-outs that look alike come from different tables or passages of the source.

Key:
[1] = target: CDK4 (Homo sapiens (Human), UniProt P11802); assay: In vitro kinase inhibition, luminescence (ADP-Glo) with retinoblastoma substrate; assay type: biochemical
[2] = target: CDK6 (Homo sapiens (Human), UniProt Q00534); assay: biochemical; assay type: biochemical
[3] = target: FMS kinase (Homo sapiens (Human), UniProt P07333); assay: LanthaScreen kinase assay (ATP, fluorescent-PolyGT substrate, TR-FRET); assay type: biochemical
Sequence of FMS kinase (P07333 20-972): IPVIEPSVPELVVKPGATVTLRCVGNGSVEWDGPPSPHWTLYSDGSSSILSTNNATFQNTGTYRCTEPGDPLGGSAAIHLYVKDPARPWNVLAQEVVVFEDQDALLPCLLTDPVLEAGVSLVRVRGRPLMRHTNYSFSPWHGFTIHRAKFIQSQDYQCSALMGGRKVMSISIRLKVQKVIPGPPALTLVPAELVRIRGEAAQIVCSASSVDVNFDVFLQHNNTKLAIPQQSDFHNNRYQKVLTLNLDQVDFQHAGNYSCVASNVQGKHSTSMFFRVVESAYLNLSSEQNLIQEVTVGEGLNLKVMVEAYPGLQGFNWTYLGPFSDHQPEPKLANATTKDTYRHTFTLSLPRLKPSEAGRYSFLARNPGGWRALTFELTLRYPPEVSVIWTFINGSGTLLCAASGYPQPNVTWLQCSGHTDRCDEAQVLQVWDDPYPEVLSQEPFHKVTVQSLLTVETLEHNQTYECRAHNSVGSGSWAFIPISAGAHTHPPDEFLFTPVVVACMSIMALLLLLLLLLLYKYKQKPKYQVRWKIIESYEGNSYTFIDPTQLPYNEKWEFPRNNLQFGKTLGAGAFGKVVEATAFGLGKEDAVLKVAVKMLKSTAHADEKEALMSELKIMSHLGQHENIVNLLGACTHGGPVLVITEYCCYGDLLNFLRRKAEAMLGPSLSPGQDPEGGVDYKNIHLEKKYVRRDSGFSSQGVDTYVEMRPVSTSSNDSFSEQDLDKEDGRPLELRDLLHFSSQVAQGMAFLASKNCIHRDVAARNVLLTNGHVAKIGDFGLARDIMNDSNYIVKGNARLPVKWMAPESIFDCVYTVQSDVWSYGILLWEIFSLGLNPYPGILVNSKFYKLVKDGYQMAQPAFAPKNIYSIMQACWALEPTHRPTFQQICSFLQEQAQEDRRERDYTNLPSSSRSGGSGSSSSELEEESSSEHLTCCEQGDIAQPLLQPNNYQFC

[4] = tested on: MCF-7; assay: Cancer cell proliferation assay, single agent; assay type: cell-based; settings: Homo sapiens, MCF7; MCF-7 cells; treated for 24-168 hours; read-out: IC50 (nM) MCF-7
[5] = target: PI3Kδ kinase (Homo sapiens (Human), UniProt O00329); assay: PI3Kδ kinase ADP-Glo assay (Reaction Biology Corporation); settings: read-out: PI3Kδ IC50
Sequence of PI3Kδ kinase (O00329 whole entry): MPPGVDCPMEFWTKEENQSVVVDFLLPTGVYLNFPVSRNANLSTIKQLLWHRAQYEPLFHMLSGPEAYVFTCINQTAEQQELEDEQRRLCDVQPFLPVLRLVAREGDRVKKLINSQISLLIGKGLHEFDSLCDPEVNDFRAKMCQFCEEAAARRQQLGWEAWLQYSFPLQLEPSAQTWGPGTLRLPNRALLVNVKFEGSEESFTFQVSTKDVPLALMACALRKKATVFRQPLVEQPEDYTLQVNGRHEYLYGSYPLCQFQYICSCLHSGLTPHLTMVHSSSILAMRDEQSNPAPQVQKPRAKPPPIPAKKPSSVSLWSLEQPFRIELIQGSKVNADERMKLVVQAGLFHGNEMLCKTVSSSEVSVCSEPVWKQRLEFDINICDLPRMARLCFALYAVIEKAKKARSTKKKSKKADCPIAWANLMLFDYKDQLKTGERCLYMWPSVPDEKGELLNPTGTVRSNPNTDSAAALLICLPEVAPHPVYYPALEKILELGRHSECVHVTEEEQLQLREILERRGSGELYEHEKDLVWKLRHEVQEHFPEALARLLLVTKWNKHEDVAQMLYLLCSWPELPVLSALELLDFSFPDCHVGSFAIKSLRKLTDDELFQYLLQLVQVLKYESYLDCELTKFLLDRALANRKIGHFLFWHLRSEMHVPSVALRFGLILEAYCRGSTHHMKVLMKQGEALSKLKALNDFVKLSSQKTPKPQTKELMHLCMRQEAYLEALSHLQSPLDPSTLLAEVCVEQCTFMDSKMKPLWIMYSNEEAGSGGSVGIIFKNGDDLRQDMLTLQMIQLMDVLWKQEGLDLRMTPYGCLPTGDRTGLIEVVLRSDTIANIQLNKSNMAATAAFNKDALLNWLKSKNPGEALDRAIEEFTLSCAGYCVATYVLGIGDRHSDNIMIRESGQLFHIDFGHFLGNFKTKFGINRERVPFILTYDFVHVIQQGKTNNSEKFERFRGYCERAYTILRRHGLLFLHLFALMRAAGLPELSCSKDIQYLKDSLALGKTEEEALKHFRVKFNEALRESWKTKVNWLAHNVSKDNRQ
Sequence of PI3Kδ kinase (P27986 whole entry partner): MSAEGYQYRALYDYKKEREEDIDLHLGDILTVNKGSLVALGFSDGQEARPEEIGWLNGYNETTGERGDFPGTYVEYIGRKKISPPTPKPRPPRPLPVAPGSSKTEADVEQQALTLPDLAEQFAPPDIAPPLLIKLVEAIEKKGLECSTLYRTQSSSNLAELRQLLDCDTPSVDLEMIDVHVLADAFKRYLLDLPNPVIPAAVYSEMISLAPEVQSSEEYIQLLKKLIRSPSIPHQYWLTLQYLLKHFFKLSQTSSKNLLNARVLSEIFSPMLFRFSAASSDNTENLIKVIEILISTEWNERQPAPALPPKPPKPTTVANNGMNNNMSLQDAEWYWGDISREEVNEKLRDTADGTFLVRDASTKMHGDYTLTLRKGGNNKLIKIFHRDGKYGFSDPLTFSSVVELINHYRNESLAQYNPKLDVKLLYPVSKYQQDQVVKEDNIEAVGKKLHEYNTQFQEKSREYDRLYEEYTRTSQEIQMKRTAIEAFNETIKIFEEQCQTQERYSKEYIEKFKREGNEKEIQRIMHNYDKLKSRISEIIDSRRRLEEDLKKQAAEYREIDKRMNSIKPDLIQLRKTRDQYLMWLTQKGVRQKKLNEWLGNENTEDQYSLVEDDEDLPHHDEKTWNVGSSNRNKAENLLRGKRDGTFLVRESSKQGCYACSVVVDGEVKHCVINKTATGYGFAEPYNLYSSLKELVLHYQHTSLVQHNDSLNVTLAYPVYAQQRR

[6] = tested on: DU4475; assay: Cancer cell proliferation assay, single agent; assay type: cell-based; settings: Homo sapiens
[7] = DU-4475, DU4475 cells, treated for 24-168 hours, read-out: IC50 (nM) DU4475

Sequence of CDK4 (P11802 whole entry): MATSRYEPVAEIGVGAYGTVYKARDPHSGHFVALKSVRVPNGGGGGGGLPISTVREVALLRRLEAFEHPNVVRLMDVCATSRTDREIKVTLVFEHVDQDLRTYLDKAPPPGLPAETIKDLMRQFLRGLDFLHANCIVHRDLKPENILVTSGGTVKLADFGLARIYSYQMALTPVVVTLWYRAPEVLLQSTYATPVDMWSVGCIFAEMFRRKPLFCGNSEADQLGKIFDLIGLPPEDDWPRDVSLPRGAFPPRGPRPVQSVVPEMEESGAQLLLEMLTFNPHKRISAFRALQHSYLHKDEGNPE
Sequence of CDK4 (P24385 whole entry partner): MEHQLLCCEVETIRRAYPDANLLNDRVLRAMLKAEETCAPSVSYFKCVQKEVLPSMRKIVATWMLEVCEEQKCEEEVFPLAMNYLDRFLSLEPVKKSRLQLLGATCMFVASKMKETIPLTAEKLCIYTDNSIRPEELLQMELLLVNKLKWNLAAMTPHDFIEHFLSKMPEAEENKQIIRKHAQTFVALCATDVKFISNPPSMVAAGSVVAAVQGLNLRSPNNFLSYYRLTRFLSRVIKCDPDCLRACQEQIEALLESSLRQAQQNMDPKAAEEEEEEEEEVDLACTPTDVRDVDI

Row | IC50 [1] | IC50 [2] | IC50 [3] | IC50 [4] | IC50 [5] | IC50 [6, 7] | SMILES | IC50 ([6]; DU-4475, read-out: IC50 (nM) DU4475)
1 | 4 nM | 10 nM | 35 nM | 105 nM | 1110 nM |  | CN1CCC(c2ccc(Nc3ncc(F)c(-c4cc(F)c5c(c4)N(C)CCO5)n3)cc2F)CC1 [Compound 466, 5-fluoro-N-(3-fluoro-4-(1-methylpiperidin-4-yl)phenyl)-4-(8-fluoro-4-methyl-3,4-dihydro-2H-benzo[b][1,4]oxazin-6-yl)pyrimidin-2-amine] | 
2 | 37 nM | 123 nM | 66 nM | 80 nM | 397 nM |  | CC(C)N1CCOc2c(F)cc(-c3nc(Nc4ccc(N5CCS(=O)(=O)CC5)c(F)c4)ncc3F)cc21 [Compound 465, 4-(2-fluoro-4-((5-fluoro-4-(8-fluoro-4-isopropyl-3,4-dihydro-2H-benzo[b][1,4]oxazin-6-yl)pyrimidin-2-yl)amino)phenyl)thiomorpholine 1,1-dioxide] | 
3 |  |  | 776 nM | 300 nM | 1160 nM | 940 nM | CC(=O)N1CCN(c2ccc(Nc3ncc(F)c(-c4cc(F)c5c(c4)N(C(C)C)CCO5)n3)nc2)CC1 [Compound 474, 1-(4-(6-((5-fluoro-4-(8-fluoro-4-isopropyl-3,4-dihydro-2H-benzo[b][1,4]oxazin-6-yl)pyrimidin-2-yl)amino)pyridin-3-yl)piperazin-1-yl)ethan-1-one] | 
4 |  |  | 7 nM | 30 nM | 3170 nM | 55 nM | CC(C)N1CCOc2c(F)cc(-c3nc(Nc4ccc(N5CCN6CCCC6C5)c(F)c4)ncc3F)cc21 (stereo not drawn) [Compound 473, 5-fluoro-N-(3-fluoro-4-(hexahydropyrrolo[1,2-a]pyrazin-2(1H)-yl)phenyl)-4-(8-fluoro-4-isopropyl-3,4-dihydro-2H-benzo[b][1,4]oxazin-6-yl)pyrimidin-2-amine] | 
5 | 1 nM | 0.6 nM | 526 nM | 95 nM | > 50000 nM |  | CC(C)N1CCOc2c(F)cc(-c3nc(Nc4ccc(N5CCN(C(=O)CN(C)C)CC5)cn4)ncc3F)cc21 [Compound 441, 2-(dimethylamino)-1-(4-(6-((5-fluoro-4-(8-fluoro-4-isopropyl-3,4-dihydro-2H-benzo[b][1,4]oxazin-6-yl)pyrimidin-2-yl)amino)pyridin-3-yl)piperazin-1-yl)ethan-1-one] | 
6 |  |  | 4590 nM | 465 nM | > 50000 nM | 450 nM | CC(C)N1CCOc2c(F)cc(-c3nc(Nc4ccc(N5CCC(CCO)CC5)cn4)ncc3F)cc21 [Compound 491, 2-(1-(6-((5-fluoro-4-(8-fluoro-4-isopropyl-3,4-dihydro-2H-benzo[b][1,4]oxazin-6-yl)pyrimidin-2-yl)amino)pyridin-3-yl)piperidin-4-yl)ethan-1-ol] | 
7 | 4.5 nM | 3 nM | 1.5 nM | < 4 nM | 13100 nM |  | CC(C)N1CCOc2c(F)cc(-c3nc(Nc4ccc5c(c4)CN(C(=O)CN(C)C)CC5)ncc3F)cc21 [Compound 455, 2-(dimethylamino)-1-(7-((5-fluoro-4-(8-fluoro-4-isopropyl-3,4-dihydro-2H-benzo[b][1,4]oxazin-6-yl)pyrimidin-2-yl)amino)-3,4-dihydroisoquinolin-2(1H)-yl)ethan-1-one] | 
8 | 31 nM | 69 nM | 69 nM | 120 nM | > 50000 nM |  | CC(C)N1CCOc2c(F)cc(-c3nc(Nc4ccc(N5CCC(O)CC5)c(F)c4)ncc3F)cc21 [Compound 445, 1-(2-fluoro-4-((5-fluoro-4-(8-fluoro-4-isopropyl-3,4-dihydro-2H-benzo[b][1,4]oxazin-6-yl)pyrimidin-2-yl)amino)phenyl)piperidin-4-ol] | 
9 | 2 nM | 2 nM | 24 nM | 30 nM | 35000 nM |  | CC(C)N1CCOc2c(F)cc(-c3nc(Nc4ccc(N5CCN(C(=O)CN(C)C)CC5)cc4)ncc3F)cc21 [Compound 440, 2-(dimethylamino)-1-(4-(4-((5-fluoro-4-(8-fluoro-4-isopropyl-3,4-dihydro-2H-benzo[b][1,4]oxazin-6-yl)pyrimidin-2-yl)amino)phenyl)piperazin-1-yl)ethan-1-one] | 
10 | 28 nM | 27 nM | 28 nM | 30 nM | > 50000 nM |  | CC(C)N1CCOc2c(F)cc(-c3nc(Nc4ccc(C5CCN(C(=O)CN(C)C)CC5)c(F)c4)ncc3F)cc21 [Compound 451, 2-(dimethylamino)-1-(4-(2-fluoro-4-((5-fluoro-4-(8-fluoro-4-isopropyl-3,4-dihydro-2H-benzo[b][1,4]oxazin-6-yl)pyrimidin-2-yl)amino)phenyl)piperidin-1-yl)ethan-1-one] | 
11 | 20 nM | 45 nM | 8 nM | 50 nM | 589 nM |  | CC(C)N1CCOc2c(F)cc(-c3nc(Nc4cnn(C5CCC(O)CC5)c4)ncc3F)cc21 (stereo not drawn) [Compound 452, 4-(4-((5-fluoro-4-(8-fluoro-4-isopropyl-3,4-dihydro-2H-benzo[b][1,4]oxazin-6-yl)pyrimidin-2-yl)amino)-1H-pyrazol-1-yl)cyclohexan-1-ol] | 
12 | 1.6 nM | 3.4 nM | 67 nM | 1250 nM | > 50000 nM |  | CC(C)N1CCOc2c(F)cc(-c3nc(Nc4cc5n(n4)CCN(C)C5)ncc3F)cc21 [Compound 444, N-(5-fluoro-4-(8-fluoro-4-isopropyl-3,4-dihydro-2H-benzo[b][1,4]oxazin-6-yl)pyrimidin-2-yl)-5-methyl-4,5,6,7-tetrahydropyrazolo[1,5-a]pyrazin-2-amine] | 
13 | 18 nM | 83 nM | > 5000 nM | 920 nM | > 50000 nM |  | CC(C)N1CCOc2c(F)cc(-c3nc(Nc4ccc(C5CCN(C(=O)N(C)C)CC5)cn4)ncc3F)cc21 [Compound 454, 4-(6-((5-fluoro-4-(8-fluoro-4-isopropyl-3,4-dihydro-2H-benzo[b][1,4]oxazin-6-yl)pyrimidin-2-yl)amino)pyridin-3-yl)-N,N-dimethylpiperidine-1-carboxamide] | 
14 | 3 nM | 3 nM | 950 nM | 285 nM | > 50000 nM |  | CC(C)N1CCOc2c(F)cc(-c3nc(Nc4cc(F)c(C5CCNCC5)cn4)ncc3F)cc21 [Compound 443, 5-fluoro-4-(8-fluoro-4-isopropyl-3,4-dihydro-2H-benzo[b][1,4]oxazin-6-yl)-N-(4-fluoro-5-(piperidin-4-yl)pyridin-2-yl)pyrimidin-2-amine] | 
15 | 0.5 nM | 0.3 nM | 214 nM | 240 nM | > 50000 nM |  | CC(C)N1CCOc2c(F)cc(-c3nc(Nc4ccc(C5CCN(C(=O)CN(C)C)CC5)cn4)ncc3F)cc21 [Compound 450, 2-(dimethylamino)-1-(4-(6-((5-fluoro-4-(8-fluoro-4-isopropyl-3,4-dihydro-2H-benzo[b][1,4]oxazin-6-yl)pyrimidin-2-yl)amino)pyridin-3-yl)piperidin-1-yl)ethan-1-one] | 

Row | SMILES | IC50 [1] | IC50 [2] | IC50 [3] | IC50 [4] | IC50 [5] | IC50 [6, 7] | IC50 ([6]; DU-4475, read-out: IC50 (nM) DU4475)
16 | CC(C)N1CCOc2c(F)cc(-c3nc(Nc4ccc(N5CCN(C(=O)CN(C)C)CC5)c(F)c4)ncc3F)cc21 [Compound 449, 2-(dimethylamino)-1-(4-(2-fluoro-4-((5-fluoro-4-(8-fluoro-4-isopropyl-3,4-dihydro-2H-benzo[b][1,4]oxazin-6-yl)pyrimidin-2-yl)amino)phenyl)piperazin-1-yl)ethan-1-one] | 1.1 nM | 0.9 nM | 9.5 nM | 50 nM | 4480 nM |  | 
17 | CC(C)N1CCOc2c(F)cc(-c3nc(Nc4ccc(N5CCN(CCO)CC5)cn4)ncc3F)cc21 [Compound 490, 2-(4-(6-((5-fluoro-4-(8-fluoro-4-isopropyl-3,4-dihydro-2H-benzo[b][1,4]oxazin-6-yl)pyrimidin-2-yl)amino)pyridin-3-yl)piperazin-1-yl)ethan-1-ol] |  |  | 2120 nM | 80 nM | > 50000 nM |  | 420 nM
18 | CN1CCOc2c(F)cc(-c3nc(Nc4ccc(N5CCC(N(C)C)CC5)c(F)c4)ncc3F)cc21 [Compound 467, N-(4-(4-(dimethylamino)piperidin-1-yl)-3-fluorophenyl)-5-fluoro-4-(8-fluoro-4-methyl-3,4-dihydro-2H-benzo[b][1,4]oxazin-6-yl)pyrimidin-2-amine] | 4 nM | 5 nM | 14 nM | 185 nM | 2430 nM |  | 
19 | CC(C)N1CCOc2c(F)cc(-c3nc(Nc4ccc(N5CCN(C(=O)N(C)C)CC5)cn4)ncc3F)cc21 [Compound 453, 4-(6-((5-fluoro-4-(8-fluoro-4-isopropyl-3,4-dihydro-2H-benzo[b][1,4]oxazin-6-yl)pyrimidin-2-yl)amino)pyridin-3-yl)-N,N-dimethylpiperazine-1-carboxamide] | 12 nM | 30 nM | > 5000 nM | 695 nM | > 50000 nM |  | 
20 | CCCN1CCOc2c(F)cc(-c3nc(Nc4ccc(N5CCC(N(C)C)CC5)c(F)c4)ncc3F)cc21 [Compound 468, N-(4-(4-(dimethylamino)piperidin-1-yl)-3-fluorophenyl)-5-fluoro-4-(8-fluoro-4-propyl-3,4-dihydro-2H-benzo[b][1,4]oxazin-6-yl)pyrimidin-2-amine] | 8 nM | 8 nM | 36 nM | 95 nM | 3780 nM |  | 
